The values that follow come from US11602529B2, “Use of EZH2 inhibitors for treating cancer” (Epizyme, Inc., priority 2017, dated 2023).

The test system of data set [1] is genetically defined cancer cells. Kind of data set: Target methyl mark inhibition and killing of cancer cells in vitro. In kind it is cell-based.
The nature of data set [2]: In vivo efficacy in animal models.
The nature of data set [3]: Oral bioavailability. The conditions noted are these: in vivo.
The subject of data set [4] is epithelioid sarcoma. Description: PD-L1, CD4 and CD8 staining of pre- and post-dose tissue biopsies of a subject with epithelioid sarcoma.
Data set [5] has as its system soft tissue sarcoma. Description: Post-treatment biopsy of patients with soft tissue sarcoma (Example 2).
Data set [6] has as its system refractory B-cell non-Hodgkin lymphoma and advanced solid tumors, including epithelioid sarcoma. The note with it: cited from earlier work.

On to `CCN(c1cc(-c2ccc(CN3CCOCC3)cc2)cc(C(=O)NCc2c(C)cc(C)[nH]c2=O)c1C)C1CCOCC1` [Compound 44, tazemetostat], for which, in data set [1], the “effect of target methyl mark inhibition on cancer cells” value is “killing of genetically defined cancer cells in vitro”. The “in vivo efficacy following inhibition of target methyl mark” value in data set [2] is “sustained in vivo efficacy”. Also, the oral bioavailability entry in data set [3] is given as “orally bioavailable”. The “PD-L1 expression in tumor after treatment” value in data set [4] (800 mg twice daily orally, 25 weeks, post-dose vs pre-dose biopsy) is reported as “upregulated PD-L1”. Further, the “T-cell markers CD4 and CD8 in tumors with upregulated PD-L1” value in data set [4] (after treatment) is “positive for T-cell markers CD4 and CD8”. Also, the “CD8+ immune cells, share of overall cellularity” value in data set [4] (post-dose sample, 800 mg twice daily orally, 25 weeks (pre-dose about 5%)) is “about 30%”. For the same molecule, in data set [4] (post-dose sample, 800 mg twice daily orally, 25 weeks (pre-dose about 20%)), the “CD4+ histiocytoid cells, cellularity” value is listed as “about 5%”. Further, in data set [4] (post-dose sample, 800 mg twice daily orally, 25 weeks (pre-dose also about 2%)), the “CD4+ cells, share of overall cellularity” value is given as “about 2%”. In addition, the “cells present in the tumor showing expression of PD-L1” value was “more than 50%” in data set [5] (biopsy after 20 weeks of treatment) and “more than 80%” in data set [5] (second patient, biopsy after 25 weeks of treatment). The “PD-L1 expression in tumor sample” value in data set [6] (after 4 weeks of treatment) is given as “modest expression of PD-L1 on immune cells”. Also, the “histological assessment of on-treatment tumor specimen” value in data set [6] (not present at baseline nor at disease progression) was “strong immune infiltrate”. For the same molecule, in data set [6] (phase I clinical study), the “clinical activity in patients” value is “antitumor activity”.
